Measured values as given in BindingDB's records for patent US11130769 (Prelude Therapeutics, 2021).

Each molecule was assayed against Induced myeloid leukemia cell differentiation protein Mcl-1 (Homo sapiens, UniProt Q07820) (assay: Fluorescence Polarization Competition Assay).
Experimental: The assay was carried out in black half-area 96-well NBS plate (Corning), containing 15 nM of MCL-1 (BPS Bioscience), 5 nM of FITC-Bim and 3-fold serial diluted test compounds in a total volume of 50 μL of assay buffer (20 mM HEPES, 50 mM NaCl, 0.002% Tween 20, 1 mM TCEP, and 1% DMSO). The reaction plate was incubated for 1 hour at room temperature. The change of anisotropy is measured with an Envision multimode plate reader (PerkinElmer) at emission wavelength 535 nm. Fluorescence polarization was calculated in mP unit and the percentage inhibition was calculated by % inhibition=100×(mPDMSO−mP)/(mPDMSO−mPPC), in which mPDMSO is the DMSO control, and mPpc is the positive control. IC50 values were determined from a 10-point dose response curve by fitting the percent inhibition against compound concentration using the GraphPad Prism software

Sequence of Induced myeloid leukemia cell differentiation protein Mcl-1 (Q07820 whole entry): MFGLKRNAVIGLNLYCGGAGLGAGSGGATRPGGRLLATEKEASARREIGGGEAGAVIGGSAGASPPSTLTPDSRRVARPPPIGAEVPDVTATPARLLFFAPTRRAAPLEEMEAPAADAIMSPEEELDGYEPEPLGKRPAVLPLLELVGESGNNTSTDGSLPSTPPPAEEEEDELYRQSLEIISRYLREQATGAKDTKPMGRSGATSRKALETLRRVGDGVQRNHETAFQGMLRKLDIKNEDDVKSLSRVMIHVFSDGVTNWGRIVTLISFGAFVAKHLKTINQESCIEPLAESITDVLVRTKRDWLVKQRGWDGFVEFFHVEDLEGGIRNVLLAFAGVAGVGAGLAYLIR

Row | Ki [nM] | SMILES
1 | < 300 | CN(C)C1CN(C(=O)O[C@H]2/C=C/COC(C)(C)C(=O)NS(=O)(=O)c3ccc4c(c3)N(C[C@@H]3CC[C@H]32)C[C@@]2(CCOc3cc(Cl)ccc32)CO4)C1
2 | < 100 | CN(C)C(=O)O[C@@H]1/C=C/CN(C)C2(CCC2)C(=O)NS(=O)(=O)c2ccc3c(c2)N(C[C@@H]2CC[C@H]21)C[C@@]1(CCCc2cc(Cl)ccc21)CO3 [US11130769, Ex. No. 139]
3 | < 100 | CCOC(=O)N(C)[C@@H]1/C=C/COC(C)(C)C(=O)NS(=O)(=O)c2ccc3c(c2)N(C[C@@H]2CC[C@H]21)C[C@@]1(CCCc2cc(Cl)ccc21)CO3 [US11130769, Ex. No. 252]
4 | < 300 | CN(C)CCN(C)C(=O)O[C@H]1/C=C/COC(C)(C)C(=O)NS(=O)(=O)c2ccc3c(c2)N(C[C@@H]2CC[C@H]21)C[C@@]1(CCOc2cc(Cl)ccc21)CO3
5 | < 300 | CCO[C@@H]1CCN(C(=O)O[C@H]2/C=C/COC(C)(C)C(=O)NS(=O)(=O)c3ccc4c(c3)N(C[C@@H]3CC[C@H]32)C[C@@]2(CCOc3cc(Cl)ccc32)CO4)C1
6 | < 300 | COC1CN(C(=O)O[C@H]2/C=C/COC(C)(C)C(=O)NS(=O)(=O)c3ccc4c(c3)N(C[C@@H]3CC[C@H]32)C[C@@]2(CCOc3cc(Cl)ccc32)CO4)C1
7 | < 300 | CN(C)[C@@H]1CCN(C(=O)O[C@H]2/C=C/COC(C)(C)C(=O)NS(=O)(=O)c3ccc4c(c3)N(C[C@@H]3CC[C@H]32)C[C@@]2(CCOc3cc(Cl)ccc32)CO4)C1
8 | < 300 | CN1C/C=C/[C@H](OC(=O)NC2CC2)[C@@H]2CC[C@H]2CN2C[C@@]3(CCCc4cc(Cl)ccc43)COc3ccc(cc32)S(=O)(=O)NC(=O)C1(C)C
9 | < 100 | CO[C@H]1/C=C/CN2CCC[C@H]2C(=O)NS(=O)(=O)c2ccc3c(c2)N(C[C@@H]2CC[C@H]21)C[C@@]1(CCCc2cc(Cl)ccc21)CO3 [US11130769, Ex. No. 100]
10 | < 100 | CO[C@@H]1/C=C/CN(C)C(=O)NS(=O)(=O)c2ccc3c(c2)N(C[C@@H]2CC[C@H]21)C[C@@]1(CCCc2cc(Cl)ccc21)CO3 [US11130769, Ex. No. 108]
11 | < 300 | CN(C)C[C@H]1CCCN1C(=O)O[C@H]1/C=C/COC(C)(C)C(=O)NS(=O)(=O)c2ccc3c(c2)N(C[C@@H]2CC[C@H]21)C[C@@]1(CCCc2cc(Cl)ccc21)CO3 [US11130769, Ex. No. 169]
